Laboratory results from PMC8951040, “Determination of Flavonoids in Selected Scleranthus Species and Their Anti-Collagenase and Antioxidant Potential” (Molecules, 2022).
“And” between values parts separate entries of the source, which are not always exact repeats. Identical values can stand only once.

How the values were obtained:
[1] = DPPH radical scavenging assay; conditions: 30 min incubation, absorbance 517 nm; mean ± SD, triplicate
Description: Individual test compounds and extracts in methanol (130 µL) were added to 70 µL of a solution of DPPH (2,2-diphenyl-1-picrylhydrazyl). After 30 min of incubation, the absorbance was evaluated at 517 nm. The determination was performed in triplicate and corrected to a blank sample (pure methanol). The radical scavenging activity of the tested samples was expressed as Trolox equivalents, calculated from the standard curve.

[2] = ABTS radical cation assay (antioxidant assay kit CS0790); conditions: 5 min incubation, absorbance 405 nm; mean ± SD, triplicate
Description: Suppression of the production of the radical cation was measured using an antioxidant assay kit (CS0790). In brief, 10 µL of the test sample, 20 µL of myoglobin working solution, and 150 µL of ABTS working solution (containing ABTS substrate solution and 3% hydrogen peroxide) were mixed into a clear, flat-bottom 96-well plate. After 5 min of incubation, 100 µL of stop solution was added and absorbance was measured at 405 nm. The antioxidant concentration of tested samples was calculated using the equation obtained through linear regression of the Trolox standard curve.

[3] = CUPRAC assay (antioxidant assay kit MAK334); conditions: 10 min incubation, absorbance 570 nm; mean ± SD, triplicate
Description: The reducing power of copper ions was evaluated using an antioxidant assay kit (MAK334). Briefly, 20 µL of sample and 100 µL of reaction mix were added into separate wells in a 96-well plate. After 10 min of incubation, the absorbance endpoint was measured at 570 nm. Total antioxidant capacity was determined using a standard curve evaluated for Trolox.

[4] = biological target: collagenase from Clostridium histolyticum; assay: Anti-collagenase assay (FALGPA substrate); format: biochemical; conditions: 20 min at 37 °C, absorbance 335 nm, mean ± SD, triplicate
Description: The potential anti-collagenase activity was assessed as previously described. In short, a solution including 25 µL of collagenase from Clostridium histolyticum, 25 µL of Tricine buffer, and 25 µL of various levels of the extracts (SP1–SP6, SA1–SA6) or compounds (6–9) were incubated at 37 °C. After 20 min, 75 µL of FALGPA was added. Then, absorbance was measured at 335 nm. The experiment was performed in 50 mM Tris buffer. The blank was evaluated using Tricine buffer, instead of sample, and the positive control was epigallocatechin gallate (EGCG). All measurements were conducted in triplicate and the IC50 for each sample was calculated. The percentage of collagenase inhibitory activity (CoInh) was calculated as follows:Enzyme inhibition activity (%) = [1 − (B/S)] × 100%, where B is the blank and S is the sample.

[5] = FRAP ferric reducing antioxidant power assay kit; conditions: 1 h at 37 °C, absorbance 594 nm; mean ± SD, triplicate
Description: The […] of the investigated substances toward ferrous ions was assessed using a ferric reducing antioxidant power assay kit. Briefly, 10 µL of each sample (SP1–SP6, SA1–SA6, 1–9) was mixed with 190 µL of supplied reaction mix (containing FRAP Assay Buffer, FeCl3 solution, and FRAP Probe). After 1 h of incubation at 37 °C, the absorbance was measured at 594 nm. A blank solution containing 10 µL of MeOH instead of extract/compound solution was used. For further calculations, the ferrous standard curve was evaluated. Values are given as mM Ferrous equivalents. All tests were performed in triplicate.

Molecule	DPPH (radical scavenging activity, Trolox equivalents) [1]	ABTS (radical scavenging activity, Trolox equivalents) [2]	CUPRAC (Trolox equivalents) [3]	IC50 [4]	melting point	FRAP (Fe2+ equivalents) [5]
COc1cc(-c2cc(=O)c3c(O)cc(O)c(C4OCC(O)C(O)C4OC4OC(CO)C(OC(C)=O)C(O)C4O)c3o2)ccc1OC(C)=O [Compound 6, 5,7-dihydroxy-3′-methoxy-4′-acetoxyflavone-8-C-β-D-arabinopyranoside-2″-O-(4‴-acetoxy)-glucoside]	6.69 ± 0.97 µM Teq	169.27 ± 1.68 µM Teq	18.57 µM Teq and 18.57 ± 0.76 µM Teq	39.6 ± 1.21 µM	187 to 188 °C	
scleranthoside C [Compound 3]	7.11 ± 0.59 µM Teq	198.57 ± 2.46 µM Teq	67.30 µM Teq and 67.30 ± 1.30 µM Teq			
scleranthoside D [Compound 4]	9.64 ± 0.82 µM Teq	302.05 ± 2.42 µM Teq	44.22 ± 1.35 µM Teq			2.65 ± 0.47 mM Fe2+ equivalents
scleranthoside A [Compound 1]	405.15 ± 3.12 µM Teq	765.16 ± 2.83 µM Teq	581.32 µM Teq and 581.32 ± 3.61 µM Teq			
O=C(O[C@@H]1Cc2c(O)cc(O)cc2O[C@@H]1c1cc(O)c(O)c(O)c1)c1cc(O)c(O)c(O)c1 [EGCG, epigallocatechin gallate, reference compound]				34.8 ± 0.53 µM		
COc1cc(-c2cc(=O)c3c(O)c(C4OC(CO)C(O)C(O)C4O)c(O)c(C4OCC(O)C(O)C4O)c3o2)ccc1O [Compound 9, 5,7,4′-trihydroxy-3′-methoxyflavone-6-C-β-D-glucopyranoside-8-C-α-arabinopyranoside]	407.05 ± 1.83 µM Teq	586.69 ± 2.91 µM Teq	18.20 ± 0.76 µM Teq	71.1 ± 0.97 µM		9.07 ± 0.45 mM Fe2+ equivalents
O=c1cc(-c2cccc(O)c2)oc2c(C3OC(CO)C(O)C(O)C3O)c(O)c(C3OC(CO)C(O)C(O)C3O)c(O)c12 [Compound 8, 5,7,3′-trihydroxyflavone-6-C-glucoside-8-C-β-D-glucoside]	176.71 ± 0.97 µM Teq	369.24 ± 3.05 µM Teq	27.15 ± 1.32 µM Teq	53.4 ± 0.88 µM		5.16 ± 0.96 mM Fe2+ equivalents
O=c1cc(-c2ccc(O)c(O)c2)oc2c(C3OC(CO)C(O)C(O)C3O)c(O)c(C3OCC(O)C(O)C3O)c(O)c12 [Compound 7, 5,7,3′,4′-tetrahydroxyflavone-6-C-xyloside-8-C-β-D-glucoside]	409.16 ± 2.03 µM Teq	796.61 ± 1.23 µM Teq	116.16 µM Teq and 116.16 ± 0.76 µM Teq	73.9 ± 1.03 µM		
COc1ccc(C(C)=O)c(O[C@@H]2O[C@H](CO[C@@H]3OC[C@](O)(CO)[C@H]3O)[C@@H](O)[C@H](O)[C@H]2O)c1 [Compound 5, Apiopaeonoside]	61.96 ± 1.90 µM Teq	444.23 ± 0.47 µM Teq	48.46 ± 1.75 µM Teq			
scleranthoside B [Compound 2]	198.43 ± 2.40 µM Teq	188.57 ± 1.86 µM Teq	114.56 ± 2.04 µM Teq			5.68 ± 0.68 mM Fe2+ equivalents
